Reference: paper PMC2730022 (Journal of medicinal chemistry, 2009)

How the values were obtained:
KB cells = test: Protection from growth inhibition by nucleosides and AICA in KB cells; assay type: cell-based, human
FRα = details: RT16 cells; folic acid = 1; cited from earlier work
FRβ = details: D4 cells; folic acid = 1; cited from earlier work

| Structure (SMILES) | Growth in the presence of AICA at higher concentrations (KB cells; AICA 320 μM, compound above 100 nM) | Protection by AICA from toxicity at low and medium concentrations (KB cells; AICA 320 μM, compound ≤ 50 nM) | Protection by adenosine from growth inhibitory effects (KB cells; adenosine 60 μM) | Effect of thymidine on growth inhibitory effects (KB cells; thymidine 10 μM) | Relative binding affinity for FRα (FRα) | Relative binding affinity for FRβ (FRβ) |
| --- | --- | --- | --- | --- | --- | --- |
| Nc1nc2sc(CCCCc3ccc(C(=O)N[C@@H](CCC(=O)O)C(=O)O)cc3)cc2c(=O)[nH]1 [Compound 4, N-{4-[4-(2-amino-4-oxo-3,4-dihydrothieno[2,3-d]pyrimidin-6-yl)butyl]benzoyl}-L-glutamic acid] | still significantly inhibited | almost completely protected | completely protective | did not alter | – | – |
| Nc1nc2c(c(=O)[nH]1)N(C=O)C(CNc1ccc(C(=O)N[C@@H](CCC(=O)O)C(=O)O)cc1)CN2 (stereo partly drawn) [LCV, (6R,S) 5-formyl tetrahydrofolate] | – | – | – | – | 0.25-0.45 | < 0.01 |
